Assay results published in publication PMC10892818, “An Antiherpesviral Host-Directed Strategy Based on CDK7 Covalently Binding Drugs: Target-Selective, Picomolar-Dose, Cross-Virus Reactivity” (Pharmaceutics, 2024).
Where two headings read alike, the source gives them in different places.

How the values were obtained:
HCMV UL97-C603W = tested on: HCMV UL97-C603W; design: method as in PMID 31940472; key: R-high, high-level drug resistance; R-int, intermediate-level drug resistance; R-low, low-level drug resistance; S, drug sensitivity; settings: cited from earlier work
HCMV UL97-H469V = tested on: HCMV UL97-H469V; design: method as in PMID 31940472; key: R-high, high-level drug resistance; R-int, intermediate-level drug resistance; R-low, low-level drug resistance; S, drug sensitivity; settings: cited from earlier work
VZV Oka-GFP = assay: microbe, parasite or virus in culture; assay type: cell-based, varicella zoster virus; settings: for EC50: Human alphaherpesvirus 3, 96 h
Text: (§1) The virus recombinants VZV Oka-GFP and rKSHV.219-GFP/RFP were used for the infection of HFFs (virus stock VZV Oka-GFP applied as a cell-bound inoculum as described before) or were continuously passaged in iSLK.219 carrier cells, respectively (Figure 1). The conditions of the GFP/RFP-based assays were adapted to both the 96 well (Figure 1A,B) and 12 well formats, and details including the assessment of antiviral reference drugs are given (Figure 1C,D).
(§2) The virus recombinants VZV Oka-GFP and rKSHV.219-GFP/RFP were used for the infection of HFFs (VZV) or were continuously passaged in iSLK.219 carrier cells (KSHV), respectively, and cell viability was determined by NRA performed with uninfected HFFs or uninduced iSLK.219 cells, respectively. (A,B) Schematic depiction of the assay systems performed in a 96 well plate format. […] For the VZV-GFP system, virus stock VZV Oka-GFP was applied as a cell-bound infectious inoculum. After a 90 min period of inoculum adsorption to the cell surfaces, antiviral compounds were added to the culture media at serial dilutions (DMSO served as a solvent control for drug treatment of infected cells, while mock-infected cells served as a negative control). For the KSHV-GFP/RFP system, iSLK.219 cell lytic replication of KSHV (RFP reporter signal) was induced by the addition of 0.05 or 0.5 µg/mL doxycycline (dox) to the culture media. Cultivated dox-induced iSLK.219 cells were treated with antiviral compounds added at serial dilutions (DMSO served as a positive infection solvent control, while dox-untreated mock cells served as a negative control). HFFs or iSLK.219 cells were harvested at 4 d p.i. or 1 d after treatment, respectively, fixed by a 10 min incubation with 10% formalin, washed with PBS, and used for quantitation of the GFP or RFP reporter signal by PicoMD counting (ImageXpress® Pico device, Molecular Devices LLC, San Jose, CA, USA), with data evaluation using CellReporterXpress® software (version 2.9.3.1183, Molecular Devices LLC) as described earlier in [63]. (C) The antiviral activity of the reference drugs was determined with the VZV-GFP system in the 96 well format. EC50 values refer to measurements in quadruplicate, and the mean values ± SD of two experimental replicates are given. (D) The antiviral activity of the reference drugs was determined with the KSHV-GFP/RFP system in the 96 well format. EC50 values refer to measurements in triplicate, and the mean values ± SD are given for each of the two depicted experimental replicates.

HCMV UL97-T409M = tested on: HCMV UL97-T409M; design: method as in PMID 31940472; key: R-high, high-level drug resistance; R-int, intermediate-level drug resistance; R-low, low-level drug resistance; S, drug sensitivity; settings: cited from earlier work
HCMV UL97-C592G = tested on: HCMV UL97-C592G; design: method as in PMID 31940472; key: R-high, high-level drug resistance; R-int, intermediate-level drug resistance; R-low, low-level drug resistance; S, drug sensitivity; settings: cited from earlier work
HCMV UL97-L397R = tested on: HCMV UL97-L397R; design: method as in PMID 31940472; key: R-high, high-level drug resistance; R-int, intermediate-level drug resistance; R-low, low-level drug resistance; S, drug sensitivity; settings: cited from earlier work
[1] = Neutral Red uptake assay (NRA), uninfected HFFs; assay type: cell-based; settings: human, read-out: CC50 (VZV-GFP system)
Protocol: The cytotoxic level of the compounds was determined by the use of an established quantitation of cell viability (i.e., Neutral Red uptake assay) performed after 3–7 d of compound incubation on uninfected cells (according to the respective duration of the antiviral reporter-based replication assay performed in parallel) as described earlier in [44].

rKSHV.219-GFP/RFP = assay: KSHV-GFP/RFP reporter assay in iSLK.219 cells; assay type: cell-based, Kaposi’s sarcoma-associated herpesvirus
Text: as §1, §2

[2] = Neutral Red uptake assay (NRA), iSLK.219 cells; assay type: cell-based; settings: human, read-out: CC50 (KSHV-GFP/RFP system)
Protocol: as §2

[3] = read-out: VZV EC50 (first experimental replicate)
[4] = read-out: VZV EC50 (second experimental replicate)

Compound	Reported phenotype UL97-C603W (HCMV UL97-C603W)	Reported phenotype UL97-H469V (HCMV UL97-H469V)	SI (VZV-GFP system) (VZV Oka-GFP; 96 well format)	EC50 (VZV Oka-GFP; [3])	EC50 (VZV Oka-GFP; [4])	Reported phenotype UL97-T409M (HCMV UL97-T409M)	Reported phenotype UL97-C592G (HCMV UL97-C592G)	Reported phenotype UL97-L397R (HCMV UL97-L397R)	CC50 [1]	EC50 (rKSHV.219-GFP/RFP; Human gammaherpesvirus 8, read-out: KSHV EC50, iSLK.219, 96 well, induced with 0.05 μg/mL dox)	EC50 (rKSHV.219-GFP/RFP; Human gammaherpesvirus 8, read-out: KSHV EC50, iSLK.219, 96 well, induced with 0.5 μg/mL dox)	CC50 ([2]; marked 0.05 μg/mL dox)	CC50 ([2]; marked 0.5 μg/mL dox)
Nc1ccn(C[C@@H](CO)OCP(=O)(O)O)c(=O)n1 [CDV, cidofovir]	S	nd | nd | S	> 323	300 ± 100 nM	300 ± 200 nM	S	S	S	> 100000 nM	–	–	–	–
Nc1nc(O)c2ncn(COC(CO)CO)c2n1 [GCV, ganciclovir]	R-high	–	–	1000 ± 800 nM	2900 ± 2700 nM	R-low	R-int	S	> 100000 nM	200 ± 100 nM	200 nM	> 100000 nM	> 100000 nM
